Molecular target: T1, recombinant Vps34 (Homo sapiens, UniProt Q8NEB9)
T1 construct: purchased Invitrogen PV5126
Assay: Phosphorylation of phosphatidylinositol (PI) by Vps34 in vitro, ADP detected by TR-FRET (HTRF Transcreener ADP)
Format: biochemical
Conditions: 10 μM ATP, 55 μg/ml PI, approximately 3 nM Vps34, 1 hour at ambient temperature; absolute IC50, mean of two independent experiments; read-out: IC50 activity range

T1 sequence (Q8NEB9 whole entry): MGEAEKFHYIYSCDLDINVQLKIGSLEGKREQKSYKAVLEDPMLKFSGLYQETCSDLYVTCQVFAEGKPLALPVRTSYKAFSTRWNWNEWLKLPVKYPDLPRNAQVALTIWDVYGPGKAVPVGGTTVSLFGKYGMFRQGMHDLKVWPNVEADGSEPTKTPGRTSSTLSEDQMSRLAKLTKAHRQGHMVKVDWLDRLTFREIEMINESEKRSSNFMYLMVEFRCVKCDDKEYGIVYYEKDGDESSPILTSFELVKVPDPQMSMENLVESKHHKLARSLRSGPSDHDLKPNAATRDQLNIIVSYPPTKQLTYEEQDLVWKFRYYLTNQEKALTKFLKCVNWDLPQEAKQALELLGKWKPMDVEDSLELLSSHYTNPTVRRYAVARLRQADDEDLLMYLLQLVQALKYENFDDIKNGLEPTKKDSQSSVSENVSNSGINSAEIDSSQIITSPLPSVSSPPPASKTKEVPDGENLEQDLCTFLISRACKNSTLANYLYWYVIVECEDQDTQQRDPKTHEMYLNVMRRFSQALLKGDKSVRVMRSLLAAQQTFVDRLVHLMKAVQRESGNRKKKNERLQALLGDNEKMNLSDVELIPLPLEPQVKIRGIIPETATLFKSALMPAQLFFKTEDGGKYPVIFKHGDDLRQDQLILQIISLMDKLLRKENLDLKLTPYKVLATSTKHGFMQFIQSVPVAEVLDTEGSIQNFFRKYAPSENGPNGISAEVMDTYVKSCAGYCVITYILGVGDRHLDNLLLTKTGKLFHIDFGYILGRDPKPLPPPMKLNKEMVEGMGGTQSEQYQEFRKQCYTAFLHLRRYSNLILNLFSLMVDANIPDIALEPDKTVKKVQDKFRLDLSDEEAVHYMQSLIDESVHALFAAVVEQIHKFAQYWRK

SMILES | IC50 [nM]
C[C@@H]1COCCN1c1cc(=O)n2c(n1)N(Cc1cccnc1)[C@H](C(F)(F)F)CC2 [Example 217, (S)-2-((R)-3-Methyl-morpholin-4-yl)-9-pyridin-3-ylmethyl-8-trifluoromethyl-6,7,8,9-tetrahydro-pyrimido[1,2-a]-pyrimidin-4-one] | < 10
CC(C)C(F)CN1c2nc(N3CCOC[C@H]3C)c(F)c(=O)n2CC[C@H]1C(F)(F)F (single isomer, unassigned) [Example 328] | < 10
C[C@@H]1COCCN1c1nc2n(c(=O)c1F)CCC(C)(C)N2CC(=O)c1ccccn1 [Example 71, 3-Fluoro-8,8-dimethyl-2-((R)-3-methyl-morpholin-4-yl)-9-(2-oxo-2-pyridin-2-yl-ethyl)-6,7,8,9-tetrahydro-pyrimido[1,2-a]-pyrimidin-4-one] | < 10
C[C@@H]1COCCN1c1cc(=O)n2c(n1)N(CC(=O)c1ccc(F)cn1)[C@H](C(F)(F)F)CC2 [Example 70, (S)-9-[2-(5-Fluoro-pyridin-2-yl)-2-oxo-ethyl]-2-((R)-3-methyl-morpholin-4-yl)-8-trifluoromethyl-6,7,8,9-tetrahydro-pyrimido[1,2-a]-pyrimidin-4-one] | < 10
C[C@@H]1COCCN1c1cc(=O)n2c(n1)N(CC(=O)C1CCOCC1)CC[C@@H]2C(F)(F)F [Example 131, (R)-2-((R)-3-Methyl-morpholin-4-yl)-9-[2-oxo-2-(tetrahydro-pyran-4-yl)ethyl]-6-trifluoromethyl-6,7,8,9-tetrahydro-pyrimido[1,2-a]-pyrimidin-4-one] | < 10
C[C@@H]1COCCN1c1cc(=O)n2c(n1)N(CC(=O)Nc1ccccc1)[C@H](C(F)(F)F)CC2 [Example 236, 2-[(S)-8-((R)-3-Methyl-morpholin-4-yl)-6-oxo-2-trifluoromethyl-3,4-dihydro-2H,6H-pyrimido[1,2-a]-pyrimidin-1-yl]-N-phenyl-acetamide] | 10 to 100
COc1cc(C(=O)CN2c3nc(N4CCOC[C@H]4C)cc(=O)n3CC[C@H]2C(F)(F)F)ccn1 [Example 61, (S)-9-[2-(2-Methoxy-pyridin-4-yl)-2-oxo-ethyl]-2-((R)-3-methyl-morpholin-4-yl)-8-trifluoromethyl-6,7,8,9-tetrahydro-pyrimido[1,2-a]-pyrimidin-4-one] | < 10
CC1CN(c2cc(=O)n3c(n2)N(CC(=O)c2ccccn2)[C@H](C(F)(F)F)CC3)CCO1 (single isomer, unassigned) [Example 175] | > 100
C[C@@H]1COCCN1c1nc2n(c(=O)c1F)CC[C@@H](C(F)(F)F)N2Cc1ncco1 [Example 42, (S)-3-Fluoro-2-((R)-3-methylmorpholin-4-yl)-9-oxazol-2-ylmethyl-8-trifluoromethyl-6,7,8,9-tetrahydro-pyrimido[1,2-a]-pyrimidin-4-one] | < 10
CC(C)OC(=O)CN1c2nc(N3CCOC[C@H]3C)cc(=O)n2CC[C@H]1C(F)(F)F [Example 254, [(S)-8-((R)-3-Methyl-morpholin-4-yl)-6-oxo-2-trifluoromethyl-3,4-dihydro-2H,6H-pyrimido[1,2-a]-pyrimidin-1-yl]acetic acid isopropyl ester] | < 10
CC(C)C(=O)CN1c2nc(N3CCOC[C@H]3C)cc(=O)n2CC[C@@]1(C)C(F)(F)F [Example 252, (S)-8-Methyl-2-((R)-3-methylmorpholin-4-yl)-9-(3-methyl-2-oxo-butyl)-8-trifluoromethyl-6,7,8,9-tetrahydro-pyrimido[1,2-a]-pyrimidin-4-one] | < 10
COc1cc(N2c3nc(N4CCOC[C@H]4C)cc(=O)n3CC[C@H]2C(F)(F)F)ccn1 [Example 80, (S)-9-(2-Methoxy-pyridin-4-yl)-2-((R)-3-methylmorpholin-4-yl)-8-trifluoromethyl-6,7,8,9-tetrahydro-pyrimido[1,2-a]-pyrimidin-4-one] | < 10
C[C@@H]1COCCN1c1nc2n(c(=O)c1F)CC[C@@H](C(F)(F)F)N2Cc1ccnc(Cl)c1 [Example 41, (S)-9-(2-Chloro-pyridin-4-ylmethyl)-3-fluoro-2-((R)-3-methyl-morpholin-4-yl)-8-trifluoromethyl-6,7,8,9-tetrahydro-pyrimido[1,2-a]-pyrimidin-4-one] | < 10
CC1CN(c2cc(=O)n3c(n2)N(Cc2ccccc2)[C@H](C(F)(F)F)CC3)CCO1 (single isomer, unassigned) [Example 191] | 10 to 100
CC(C)C(=O)CN1c2nc(N3CC4CCC(C3)O4)c(F)c(=O)n2CC[C@H]1C(F)(F)F [Example 274, (S)-3-Fluoro-9-(3-methyl-2-oxobutyl)-2-(8-oxa-3-aza-bicyclo[3.2.1]oct-3-yl)-8-trifluoromethyl-6,7,8,9-tetrahydro-pyrimido[1,2-a]-pyrimidin-4-one] | 10 to 100
C[C@@H]1COCCN1c1cc(=O)n2c(n1)N(Cc1ccc(F)nc1)[C@H](C(F)(F)F)CC2 [Example 24, (S)-9-(6-Fluoropyridin-3-ylmethyl)-2-((R)-3-methylmorpholin-4-yl)-8-trifluoromethyl-6,7,8,9-tetrahydro-pyrimido[1,2-a]-pyrimidin-4-one] | < 10

SMILES | IC50 [nM]
C[C@@H]1COCCN1c1nc2n(c(=O)c1F)CC[C@@H](C(F)(F)F)N2Cc1ccnc(F)c1 [Example 5, (S)-3-Fluoro-9-(2-fluoropyridin-4-yl-methyl)-2-((R)-3-methylmorpholin-4-yl)-8-trifluoromethyl-6,7,8,9-tetrahydro-pyrimido[1,2-a]-pyrimidin-4-one] | < 10
CCC1CN(c2cc(=O)n3c(n2)N(CC(=O)c2ccccn2)[C@H](C(F)(F)F)CC3)CCO1 (single isomer, unassigned) [Example 172] | > 100
C[C@@H]1COCCN1c1cc(=O)n2c(n1)N(Cc1cncs1)[C@H](C(F)(F)F)CC2 [Example 87, (S)-2-((R)-3-Methyl-morpholin-4-yl)-9-thiazol-5-ylmethyl-8-trifluoromethyl-6,7,8,9-tetrahydro-pyrimido[1,2-a]-pyrimidin-4-one] | < 10
C[C@@H]1COCCN1c1cc(=O)n2c(n1)N(C/C(=N/O)C1CC1)[C@H](C(F)(F)F)CC2 (single isomer, unassigned) [Example 305] | < 10
O=c1cc(N2CC3CCC(C2)O3)nc2n1CC[C@@H](C(F)(F)F)N2Cc1cnc(Cl)s1 [Example 165, (S)-9-(2-Chloro-thiazol-5-ylmethyl)-2-(8-oxa-3-aza-bicyclo[3.2.1]oct-3-yl)-8-trifluoromethyl-6,7,8,9-tetrahydro-pyrimido[1,2-a]-pyrimidin-4-one] | 10 to 100
C[C@@H]1COCCN1c1cc(=O)n2c(n1)N(CC1(C3CC3)CCO1)[C@H](C(F)(F)F)CC2 (single isomer, unassigned) [Example 308] | < 10
C[C@@H]1COCCN1c1cc(=O)n2c(n1)N(Cc1ccncc1Cl)[C@H](C(F)(F)F)CC2 [Example 66, (S)-9-(3-Chloro-pyridin-4-ylmethyl)-2-((R)-3-methyl-mopholin-4-yl)-8-trifluoromethyl-6,7,8,9-tetrahydro-pyrimido[1,2-a]-pyrimidin-4-one] | < 10
C[C@@H]1COCCN1c1cc(=O)n2c(n1)N(Cc1nc(C(F)(F)F)no1)CC[C@@H]2C(F)(F)F [Example 144, (R)-2-((R)-3-Methyl-morpholin-4-yl)-6-trifluoromethyl-9-(3-trifluoromethyl-[1,2,4]oxadiazol-5-yl-methyl)-6,7,8,9-tetrahydro-pyrimido[1,2-a]-pyrimidin-4-one] | < 10
C[C@@H]1COCCN1c1cc(=O)n2c(n1)N(CC1COC1)[C@H](C(F)(F)F)CC2 [Example 133, (S)-2-((R)-3-Methyl-morpholin-4-yl)-9-oxetan-3-ylmethyl-8-trifluoromethyl-6,7,8,9-tetrahydro-pyrimido[1,2-a]-pyrimidin-4-one] | < 10
CC(C)Oc1ccc(N2c3nc(N4CCOC[C@H]4C)cc(=O)n3CC[C@H]2C(F)(F)F)cn1 [Example 85, (S)-9-(6-Isopropoxy-pyridin-3-yl)-2-((R)-3-methylmorpholin-4-yl)-8-trifluoromethyl-6,7,8,9-tetrahydro-pyrimido[1,2-a]-pyrimidin-4-one] | < 10
C[C@@H]1COCCN1c1cc(=O)n2c(n1)N(Cc1cnc(Cl)s1)[C@H](C(F)(F)F)CC2 [Example 34, (S)-9-(2-Chloro-thiazol-5-ylmethyl)-2-((R)-3-methyl-morpholin-4-yl)-8-trifluoromethyl-6,7,8,9-tetrahydro-pyrimido[1,2-a]-pyrimidin-4-one] | 10 to 100
COC(CN1c2nc(N3CCOC[C@H]3C)cc(=O)n2CC[C@H]1C(F)(F)F)C(C)C (single isomer, unassigned) [Example 288] | < 10
C[C@@H]1COCCN1c1nc2n(c(=O)c1F)CC[C@@H](C(F)(F)F)N2Cc1nc(C(C)(C)C)no1 [Example 250, (S)-9-(3-tert-Butyl-[1,2,4]oxadiazol-5-yl-methyl)-3-fluoro-2-((R)-3-methyl-morpholin-4-yl)-8-trifluoromethyl-6,7,8,9-tetrahydro-pyrimido[1,2-a]-pyrimidin-4-one] | < 10
C[C@@H]1COCCN1c1cc(=O)n2c(n1)N(c1cccc(F)c1)[C@H](C(F)(F)F)CC2 [Example 75, (S)-9-(3-Fluoro-phenyl)-2-((R)-3-methylmorpholin-4-yl)-8-trifluoromethyl-6,7,8,9-tetrahydro-pyrimido[1,2-a]-pyrimidin-4-one] | < 10
C[C@@H]1COCCN1c1cc(=O)n2c(n1)N(Cc1nccs1)[C@H](C(F)(F)F)CC2 [Example 231, (S)-2-((R)-3-Methyl-morpholin-4-yl)-9-thiazol-2-ylmethyl-8-trifluoromethyl-6,7,8,9-tetrahydro-pyrimido[1,2-a]-pyrimidin-4-one] | < 10
C[C@@H]1COCCN1c1nc2n(c(=O)c1F)CC[C@@H](C(F)(F)F)N2Cc1noc(C2CC2)n1 [Example 247, (S)-9-(5-Cyclopropyl-[1,2,4]oxadiazol-3-yl-methyl)-3-fluoro-2-((R)-3-methyl-morpholin-4-yl)-8-trifluoromethyl-6,7,8,9-tetrahydro-pyrimido[1,2-a]-pyrimidin-4-one] | < 10

— patent US11739100B2, “2,3-dihydro-1h-imidazo{1,2-a}pyrimidin-5-one and this 1,2,3,4-tetrahydropyrimido{1,2-a}pyrimidin-6-one derivatives comprising a substituted morpholine, preparation thereof and pharmaceutical use thereof” (SANOFI, priority 2012, dated 2023)
